Data from patent US11858958B2, “Blank liposome with ginsenoside Rg3 or its analog as membrane materials and preparations and uses thereof” (Shanghai Ginsome Pharmatech Co., Ltd., priority 2018, dated 2024).
“And” between values parts separate entries of the source, which are not always exact repeats. Identical values can stand only once.

Columns and labels:
rat C6 glioma cells = assay: In vitro drug efficiency assay, survival rate of glioma cells; assay type: cell-based
[1] = system: in-situ glioma model (C6 cells); assay: Survival curve and median survival day; assay type: in vivo, nude mice
[2] = system: human gastric cancer cell (BGC-823); assay: In vivo pharmacological efficacy assay, relative tumor volume; design: species or system nude mice
Description: 2. In vivo pharmacological efficacy assay: A total of 72 subcutaneous tumor-bearing nude mice were randomerized into 8 groups (9 in each group), and intravenously injected with PBS solution (Control group,), Rg3, Rg3-blank, PTX-Cho-Lipo, Abraxane, PTX-Rg5-Gipo, PTX-Rg3-Gipo and PTX-Rh2-Gipo, via tail vein at a dose of 10 mg·kg^1. The changes of mice body weights in each group were recorded every 2 days, and the longest diameter and the shortest diameter of tumors were measured with vernier calipers. The tumor volume is calculated by the following formula: V=(dmax×dmin^2)/2, wherein dmin and dmax are respectively the shortest diameter and the longest diameter (mm) of the tumor; a relative tumor volume (RTV) is calculated according to the measurement results by the formula: RTV=TVn/TV0,
wherein TVn is the volume of the tumor measured every 2 days, TV0 is the volume of the tumor measured at day zero (the administration day).

[3] = in words; cited from earlier work
[4] = system: human breast cancer cell line (4T1); assay: In vitro cytotoxicity studies (DTX groups); assay type: cell-based
Description: For each concentration group, 4 replicates were set up. The whole experiment was independently repeated 3 times.
The in vitro cytotoxicity was evaluated using human breast cancer cell line (4T1).

[5] = system: human breast cancer cell line (4T1); assay: In vitro drug efficacy assay, cell survival rate (Rh2/PTX groups)
Description: Logarithmically growing tumor cells were collected and resuspended in DMEM complete medium supplemented with 10% fetal bovine serum, 100 U/ml penicillin and 100 μg/ml streptomycin to a final cell density of 4×10^4 cells/ml. Then, 200 μl cell suspension solution was seeded into each well of a 96-well plate (with a concentration of 8×10^3 cells/well) and the plate was cultured in a CO2 cell culture incubator at 37° C. […] The group without replacing DMEM complete medium by anti-cancer drug solution was used as negative control. For each concentration group, 4 replicates were set up. The whole experiment was independently repeated 3 times. The cells were continuously cultured in a CO2 cell culture incubator at 37° C. […] Then discarded the supernatant, added 150 μl DMSO into each well, and shaked the plate for 10 min. The absorbance was measured at 490 nm using a microplate reader (Tecan infinite M 200 TECAN, Switzerland). The cell survival rate is calculated according to the following formula:

[6] = system: human breast cancer cell 4T1; assay: In vivo drug efficacy assay, relative tumor volume (Rh2/PTX groups); design: species or system nude mice; settings: 4T1, tail vein 30 mg/kg
Description: To evaluate the drug efficacy in vivo, 45 subcutaneous tumor-bearing nude mice were randomized into 5 treatment groups (9 in each group) and intravenously injected with PBS solution (control group), ginsenoside Rh2 (Rh2 group), ginsenoside Rh2 blank liposome (Rh2-Blank group), conventional paclitaxel cholesterol liposome (PTX-Cho-Lipo group) and ginsenoside Rh2 paclitaxel liposome (PTX-Rh2-Gipo group) via tail vein at a dose of 30 mg/kg. The changes of body weights of mice in each group were recorded every 2 days, and the longest diameter and the shortest diameter of tumors were measured with vernier calipers. The tumor volume was calculated by the following formula: V=(dmax×dmin^2)/2, wherein dmin and dmax are respectively the shortest diameter and the longest diameter (mm) of the tumor; a relative tumor volume (RTV) was calculated according to the measurement results, by the formula: RTV=TVn/TV0, […], TV0 is the volume of the tumor measured at day zero (the administration day).

CC(C)=CCC[C@](C)(O)[C@H]1CC[C@]2(C)[C@@H]1[C@H](O)C[C@@H]1[C@@]3(C)CC[C@H](O[C@@H]4O[C@H](CO)[C@@H](O)[C@H](O)[C@H]4O[C@@H]4O[C@H](CO)[C@@H](O)[C@H](O)[C@H]4O)C(C)(C)[C@@H]3CC[C@]12C [Rg3, Ginsenoside 20(S)-Rg3]
Cell Viability (rat C6 glioma cells; C6, C 0.001 μg/ml (Table 10)): 100 | Cell Viability (rat C6 glioma cells; C6, C 0.003 μg/ml (Table 10)): 98.82 | Cell Viability (rat C6 glioma cells; C6, C 0.01 μg/ml (Table 10)): 92.42 | Cell Viability (rat C6 glioma cells; C6, C 0.03 μg/ml (Table 10)): 92.03 | Cell Viability (rat C6 glioma cells; C6, C 0.08 μg/ml (Table 10)): 94.23 | Cell Viability (rat C6 glioma cells; C6, C 0.25 μg/ml (Table 10)): 95.43 | Cell Viability (rat C6 glioma cells; C6, C 0.74 μg/ml (Table 10)): 92.822 | Cell Viability (rat C6 glioma cells; C6, C 2.22 μg/ml (Table 10)): 96.16 | Cell Viability (rat C6 glioma cells; C6, C 6.67 μg/ml (Table 10)): 95.02 | Cell Viability (rat C6 glioma cells; C6, C 20 μg/ml (Table 10)): 89.02 | Median survial ([1]; tail vein 10 mg·kg^−1): 29 days and 32 days | number of survived mice ([1]; tail vein 10 mg·kg^−1, Time 12 d): 10 | number of survived mice ([1]; tail vein 10 mg·kg^−1, Time 14 d): 10 | number of survived mice ([1]; tail vein 10 mg·kg^−1, Time 16 d): 9 | number of survived mice ([1]; tail vein 10 mg·kg^−1, Time 18 d): 9 | number of survived mice ([1]; tail vein 10 mg·kg^−1, Time 20 d): 8 | number of survived mice ([1]; tail vein 10 mg·kg^−1, Time 22 d): 7 | number of survived mice ([1]; tail vein 10 mg·kg^−1, Time 24 d): 7 | number of survived mice ([1]; tail vein 10 mg·kg^−1, Time 26 d): 6 | number of survived mice ([1]; tail vein 10 mg·kg^−1, Time 28 d): 5 | number of survived mice ([1]; tail vein 10 mg·kg^−1, Time 30 d): 4 | number of survived mice ([1]; tail vein 10 mg·kg^−1, Time 32 d): 4 | number of survived mice ([1]; tail vein 10 mg·kg^−1, Time 34 d): 3 | number of survived mice ([1]; tail vein 10 mg·kg^−1, Time 36 d): 3 | number of survived mice ([1]; tail vein 10 mg·kg^−1, Time 38 d): 2 | number of survived mice ([1]; tail vein 10 mg·kg^−1, Time 40 d): 1 | number of survived mice ([1]; tail vein 10 mg·kg^−1, Time 42 d): 0 | number of survived mice ([1]; tail vein 10 mg·kg^−1, Time 44 d): 0 | number of survived mice ([1]; tail vein 10 mg·kg^−1, Time 46 d): 0 | number of survived mice ([1]; tail vein 10 mg·kg^−1, Time 48 d): 0 | number of survived mice ([1]; tail vein 10 mg·kg^−1, Time 50 d): 0 | number of survived mice ([1]; tail vein 10 mg·kg^−1, Time 52 d): 0 | number of survived mice ([1]; tail vein 10 mg·kg^−1, Time 54 d): 0 | number of survived mice ([1]; tail vein 10 mg·kg^−1, Time 56 d): 0 | number of survived mice ([1]; tail vein 10 mg·kg^−1, Time 58 d): 0 | number of survived mice ([1]; tail vein 10 mg·kg^−1, Time 60 d): 0 | number of survived mice ([1]; tail vein 10 mg·kg^−1, Time 62 d): 0 | Relative tumor volume ([2]; BGC-823, tail vein 10 mg·kg^1, time 1 d): 166.88 | Relative tumor volume ([2]; BGC-823, tail vein 10 mg·kg^1, time 3 d): 267.38 | Relative tumor volume ([2]; BGC-823, tail vein 10 mg·kg^1, time 5 d): 317.96 | Relative tumor volume ([2]; BGC-823, tail vein 10 mg·kg^1, time 7 d): 417.96 | Relative tumor volume ([2]; BGC-823, tail vein 10 mg·kg^1, time 9 d): 717.96 | Relative tumor volume ([2]; BGC-823, tail vein 10 mg·kg^1, time 11 d): 1340.69 | Relative tumor volume ([2]; BGC-823, tail vein 10 mg·kg^1, time 13 d): 1636.89 | Relative tumor volume ([2]; BGC-823, tail vein 10 mg·kg^1, time 15 d): 2034.43 | Relative tumor volume ([2]; BGC-823, tail vein 10 mg·kg^1, time 17 d): 2034.43 | Relative tumor volume ([2]; BGC-823, tail vein 10 mg·kg^1, time 19 d): 2034.43 | Relative tumor volume ([2]; BGC-823, tail vein 10 mg·kg^1, time 21 d): 2034.43 | Relative tumor volume ([2]; BGC-823, tail vein 10 mg·kg^1, time 23 d): 2034.43 | solubility in diethyl ether and chloroform [3]: insoluble in diethyl ether and chloroform | solubility in methanol and ethanol [3]: soluble in methanol and ethanol | solubility in water [3]: poorly soluble in water

CC(=O)O[C@@]12CO[C@@H]1C[C@H](O)[C@@]1(C)C(=O)[C@H](O)C3=C(C)[C@@H](OC(=O)[C@H](O)[C@@H](NC(=O)OC(C)(C)C)c4ccccc4)C[C@@](O)([C@@H](OC(=O)c4ccccc4)[C@H]21)C3(C)C [DTX, docetaxel]
Cell viability(%) ([4]; 4T1, Concentration 3.84E−05 μg/ml): 83.55% | Cell viability(%) ([4]; 4T1, Concentration 7.68E−06 μg/ml): 86.66% | viability at 0.00019 µg/mL ([4]; Homo sapiens, 4T1, Concentration 0.00019 μg/ml): 72.5% | viability at 0.00096 µg/mL ([4]; Homo sapiens, 4T1, Concentration 0.00096 μg/ml): 61.6% | viability at 0.0048 µg/mL ([4]; Homo sapiens, 4T1, Concentration 0.0048 μg/ml): 50.9% | viability at 0.024 µg/mL ([4]; Homo sapiens, 4T1, Concentration 0.024 μg/ml): 49.9% | viability at 0.12 µg/mL ([4]; Homo sapiens, 4T1, Concentration 0.12 μg/ml): 46.3% | viability at 0.6 µg/mL ([4]; Homo sapiens, 4T1, Concentration 0.6 μg/ml): 48.9% | viability at 3 µg/mL ([4]; Homo sapiens, 4T1, Concentration 3 μg/ml): 51.9%

CC(C)=CCC[C@](C)(O)[C@H]1CC[C@]2(C)[C@@H]1[C@H](O)C[C@@H]1[C@@]3(C)CC[C@H](O[C@@H]4O[C@H](CO)[C@@H](O)[C@H](O)[C@H]4O)C(C)(C)[C@@H]3CC[C@]12C [Rh2, ginsenoside Rh2]
Cell Viability ([5]; 4T1, C 0.00366 μM): 104.04 | Cell Viability ([5]; 4T1, C 0.01097 μM): 92.85 | Cell Viability ([5]; 4T1, C 0.03292 μM): 94.47 | Cell Viability ([5]; 4T1, C 0.09877 μM): 99.90 | Cell Viability ([5]; 4T1, C 0.29630 μM): 98.07 | Cell Viability ([5]; 4T1, C 0.88889 μM): 96.04 | Cell Viability ([5]; 4T1, C 2.66667 μM): 104.25 | Cell Viability ([5]; 4T1, C 8.00000 μM): 100.73 | activity in vitro against human breast cancer cells (4T1) ([5]; in words): low activity | Relative tumor volume ([6]; time 0 d): 100.00 | Relative tumor volume ([6]; time 3 d): 200.94 | Relative tumor volume ([6]; time 6 d): 316.69 | Relative tumor volume ([6]; time 9 d): 276.04 | Relative tumor volume ([6]; time 12 d): 400.20 | Relative tumor volume ([6]; time 15 d): 473.53 | Relative tumor volume ([6]; time 18 d): 510.20 | Relative tumor volume ([6]; time 21 d): 898.52 | solubility in diethyl ether and chloroform [3]: insoluble in diethyl ether and chloroform | solubility in methanol and ethanol [3]: soluble in methanol and ethanol | solubility in water [3]: poorly soluble in water
